Measured values: patent US20230024283A1, “HERBICIDAL COMPOUNDS” (SYNGENTA CROP PROTECTION AG, priority 2020, published 2023)

Legend:
Assay in all cases: Post-emergence herbicidal glasshouse test
Type in all cases: in vivo
Conditions in all cases: post-emergence spray, evaluated after 13 days, five-point scale
[1] = test system: Abutilon theophrasti (ABUTH)
Protocol: (§1) Seeds of a variety of test species are sown in standard soil in pots (Ipomoea hederacea (IPOHE), Abutilon theophrasti (ABUTH), Amaranthus retoflexus (AMARE), Echinochloa crus-galli (ECHCG), Setaria faberi (SETFA)). After 8 days cultivation under controlled conditions in a glasshouse (at 24/16° C., day/night; 14 hours light; 65% humidity), the plants are sprayed with an aqueous spray solution derived from the formulation of the technical active ingredient in acetone / water (50:50) solution containing 0.5% Tween 20 (polyoxyethelyene sorbitan monolaurate, CAS RN 9005-64-5). Compounds are applied at 1000 g/ha unless otherwise stated. The test plants are then grown in a glasshouse under controlled conditions in a glasshouse (at 24/16° C., day/night; 14 hours light; 65% humidity) and watered twice daily. After 13 days the test is evaluated for the percentage damage caused to the plant. The biological activities are shown in the following table on a five-point scale (5=81-100%; 4=61-80%; 3=41-60%; 2=21-40%; 1=0-20%).

[2] = test system: Amaranthus retoflexus (AMARE)
Protocol: as §1

[3] = test system: Setaria faberi (SETFA)
Protocol: as §1

[4] = test system: Ipomoea hederacea (IPOHE)
Protocol: as §1

[5] = test system: Echinochloa crus-galli (ECHCG)
Protocol: as §1

SMILES	percentage damage caused to the plant, ABUTH ([1]; 1000 g/ha)	percentage damage caused to the plant, AMARE ([2]; 1000 g/ha)	percentage damage caused to the plant, SETFA ([3]; 1000 g/ha)	percentage damage caused to the plant, IPOHE ([4]; 1000 g/ha)	percentage damage caused to the plant, ECHCG ([5]; 1000 g/ha)	percentage damage caused to the plant, ABUTH ([1]; applied at 500 gai/ha)	percentage damage caused to the plant, AMARE ([2]; applied at 500 gai/ha)	percentage damage caused to the plant, SETFA ([3]; applied at 500 gai/ha)	percentage damage caused to the plant, IPOHE ([4]; applied at 500 gai/ha)	percentage damage caused to the plant, ECHCG ([5]; applied at 500 gai/ha)
N#Cc1cncc(-c2cc(C#N)cc(Br)c2O)c1 [Compound 1.067]	3 (3=41-60%)	1 (1=0-20%)	2 (2=21-40%)	2 (2=21-40%)	2 (2=21-40%)					
N#Cc1cc(Br)c(O)c(-c2ccc(F)c(F)c2)c1 [Compound 1.130]	5 (5=81-100%)	5 (5=81-100%)	1 (1=0-20%)	2 (2=21-40%)	1 (1=0-20%)					
N#Cc1cc(Br)c(O)c(-c2cccs2)c1 [Compound 1.134]	4 (4=61-80%)	4 (4=61-80%)	1 (1=0-20%)	4 (4=61-80%)	1 (1=0-20%)					
N#Cc1cc(Br)c(O)c(-c2ccsc2)c1 [Compound 1.135]	5 (5=81-100%)	2 (2=21-40%)	1 (1=0-20%)	5 (5=81-100%)	1 (1=0-20%)					
N#Cc1cccc(-c2cc(C#N)cc(C(F)(F)F)c2O)c1 [Compound 1.145]						1 (1=0-20%)	1 (1=0-20%)	1 (1=0-20%)	3 (3=41-60%)	1 (1=0-20%)
N#Cc1cc(-c2cc(F)cc(Cl)c2)c(O)c(C(F)(F)F)c1 [Compound 1.148]						1 (1=0-20%)	3 (3=41-60%)	1 (1=0-20%)	4 (4=61-80%)	1 (1=0-20%)
N#Cc1cc(-c2ccc(OC(F)(F)F)cc2)c(O)c(C(F)(F)F)c1 [Compound 1.151]	1 (1=0-20%)	5 (5=81-100%)	1 (1=0-20%)	3 (3=41-60%)	1 (1=0-20%)					
N#Cc1cc(-c2ccnc(C(F)(F)F)c2)c(O)c(C(F)(F)F)c1 [Compound 1.158]	1 (1=0-20%)	4 (4=61-80%)	1 (1=0-20%)	2 (2=21-40%)	1 (1=0-20%)					
N#Cc1cc(-c2ccc(F)c(Cl)c2)c(O)c(C(F)(F)F)c1 [Compound 1.160]	1 (1=0-20%)	5 (5=81-100%)	1 (1=0-20%)	2 (2=21-40%)	1 (1=0-20%)					
Cc1cc(F)cc(-c2cc(C#N)cc(C(F)(F)F)c2O)c1 [Compound 1.162]	1 (1=0-20%)	2 (2=21-40%)	1 (1=0-20%)	3 (3=41-60%)	1 (1=0-20%)					
N#Cc1cc(-c2cccc(OC(F)(F)F)c2)c(O)c(C(F)(F)F)c1 [Compound 1.165]	1 (1=0-20%)	3 (3=41-60%)	1 (1=0-20%)	4 (4=61-80%)	1 (1=0-20%)					
N#Cc1cc(-c2cc(F)c(F)c(F)c2)c(O)c(C(F)(F)F)c1 [Compound 1.182]	4 (4=61-80%)	5 (5=81-100%)	1 (1=0-20%)	5 (5=81-100%)	1 (1=0-20%)					
N#Cc1cc(-c2cc(F)cc(F)c2)c(O)c(C(F)(F)F)c1 [Compound 1.183]	4 (4=61-80%)	5 (5=81-100%)	2 (2=21-40%)	2 (2=21-40%)	2 (2=21-40%)					
N#Cc1cc(-n2cc(F)cn2)c(O)c(C(F)(F)F)c1 [Compound 1.186]	5 (5=81-100%)	2 (2=21-40%)	1 (1=0-20%)	4 (4=61-80%)	1 (1=0-20%)					
Cc1cn(-c2cc(C#N)cc(C(F)(F)F)c2O)nc1C(F)(F)F [Compound 1.187]	1 (1=0-20%)	5 (5=81-100%)	1 (1=0-20%)	1 (1=0-20%)	1 (1=0-20%)					
N#Cc1cc(-n2cc(C(F)(F)F)cn2)c(O)c(C(F)(F)F)c1 [Compound 1.190]	1 (1=0-20%)	3 (3=41-60%)	1 (1=0-20%)	1 (1=0-20%)	1 (1=0-20%)					
N#Cc1cc(-c2cccc(F)c2)c(O)c([N+](=O)[O-])c1 [Compound 1.191]	4 (4=61-80%)	5 (5=81-100%)	2 (2=21-40%)	3 (3=41-60%)	2 (2=21-40%)					
N#Cc1cc(C#N)c(O)c(-c2cccc(F)c2)c1 [Compound 1.194]	3 (3=41-60%)	2 (2=21-40%)	2 (2=21-40%)	3 (3=41-60%)	1 (1=0-20%)					
N#Cc1cc(-n2cc(Cl)c(C(F)F)n2)c(O)c(C(F)(F)F)c1 [Compound 1.250]	2 (2=21-40%)	5 (5=81-100%)	2 (2=21-40%)	5 (5=81-100%)	2 (2=21-40%)					
N#Cc1cc(-n2cc(Cl)c(C3CC3)n2)c(O)c(C(F)(F)F)c1 [Compound 1.259]	3 (3=41-60%)	5 (5=81-100%)	2 (2=21-40%)	5 (5=81-100%)	2 (2=21-40%)					
CC(=O)Oc1c(-c2cccc(F)c2)cc(C#N)cc1C(F)(F)F [Compound 2.002]	5 (5=81-100%)	5 (5=81-100%)	1 (1=0-20%)	5 (5=81-100%)	4 (4=61-80%)					
CC(C)C(=O)Oc1c(Cl)cc(C#N)cc1-c1cccc(F)c1 [Compound 2.006]	4 (4=61-80%)	3 (3=41-60%)	1 (1=0-20%)	1 (1=0-20%)	1 (1=0-20%)					
